Values joined by “and” are separate entries in the source; they are usually repeats but may differ in a detail not shown here. Identical values can stand only once.
How the values were obtained:
[1] = system: unilateral ACLT model of OA; conditions: four weeks following ACLT surgery, previous work (Boyan et al.); cited from earlier work
[2] = system: bilateral ACLT model of OA in Sprague Dawley rats; experiment: Severe model of OA: bilateral ACLT, weekly intra-articular 24R,25 injections; type: in vivo, rat; conditions: 10 weeks
Protocol: The second study created a more severe model of OA by performing bilateral ACLTs, using the experimental design shown in FIG. 2B. Treatment groups had n=8 plus 1 extra animal in case of morbidity or mortality. Nine animals were sedated using 2-4% isoflurane anesthesia in 400 mL/min O2 to effect. Bilateral anterior cruciate ligament transections were performed by medially translocating the patellar tendon in order to visualize and transect the ACL. Left legs received vehicle injections and right legs received 24R,25 injections once weekly using the same injection regimen outlined for the previous study. Animals were killed 70 days post-ACLT, and serum and hind-limbs were collected.
24R,25(OH)2D3 was obtained from Enzo Life Sciences (Plymouth Meeting, PA) and dissolved in ethanol at a stock concentration of 10^−4 M in accordance with a previously established protocol (see Boyan et al. PLoS One. 2016; 11(8):e0161782). 40 μL of stock 24R,25 was dissolved in 10 mL sterile 1×PBS to create a final treatment concentration of 4×10^−7 M 24R,25. All animals received injections of 25 μL of 4×10^−7 M 24R,25 in right legs or vehicle (40 μL ethanol dissolved in sterile 1×PBS to a final concentration of 0.4%) in left legs once a week for 70 days based on a previously established protocol (see Boyan et al., supra).
Samples were decalcified for 7 days using Decal™ (StatLab Medical Products, Mckinney, TX), rinsed in running DI water for 15 mins, dehydrated in a series of 70-100% ethanol and xylene washes, and embedded with Richard-Allan Scientific Histoplast Paraffin (VWR, Radnor, PA). 5 μm sections were cut every 100-200 μm throughout the joint using a manual microtome (Shandon Finesse 325, Thermo Scientific) and stained using hematoxylin and eosin (H&E), toluidine blue, or Masson's trichrome. Samples were imaged using Zen 2012 Blue Edition software with an AxioCam MRc5 camera and Axio Observer Z.1 microscope (Carl Zeiss Microscopy, Oberkochen, Germany).
The articular cartilage area, fibrotic area, and percent healthy subchondral bone were measured using Zen 2012 Blue Edition software. For the unilateral ACLT study: the articular cartilage area was measured on 2-3 slides per sample and the average area for each sample was reported for medial tibias. […] For the bilateral ACLT study, articular cartilage area, fibrotic area, and the percent healthy subchondral bone were measured on one slide per sample for medial femurs. The subchondral bone plate was measured and subdivided into healthy regions (normal cartilage above) and unhealthy regions (subchondral bone remodeling and osteophyte formation, cartilage erosion/delamination). The percent healthy subchondral bone was reported as healthy subchondral bone divided by total subchondral bone*100.
Two blinded reviewers scored histological samples and assigned a grade (0-6.5) to assess OA depth progression into the cartilage and a stage (0-4) to assess the horizontal extent of cartilage involvement along the articulating surface according to the OARSI scoring system guidelines (see Pritzker et al. Osteoarthritis Cartilage. 2006 January; 14(1):13-29). The grade and stage were multiplied together to obtain the OARSI score. The higher the score, the more severe OA present, with a max possible score of 26. […]
Data are represented as mean±standard error. […] Blood serum of day 0 vs day 70 was analyzed used a two-tailed paired t-test using an alpha=0.05. […]

[3] = system: unilateral ACLT model of OA in Sprague Dawley rats; experiment: Mild model of OA: unilateral ACLT, weekly intra-articular 24R,25 injections; type: in vivo, rat
Protocol: A total of 54 skeletally mature male Sprague-Dawley rats (Envigo, Indianapolis, IN), 9-10 weeks of age, weighing 250-300 g at the study onset, were used for these experiments. All animal procedures were performed according to the National Research Council's Guide for the Care and Use of Laboratory Animals guidelines and approved by Virginia Commonwealth University's Institutional Animal Care and Use Committee. All rats were given ad libitum access to standard pellet and water. Based on a previous study (Scott, supra) using a 30% effect size, 20% variance, and a power of 80%, a two-tail analysis indicated an n=8 per group was necessary to yield statistical significance.
The unilateral ACLT study initially included 45 rats. Each treatment group had n=8 plus 1 extra animal in case of morbidity or mortality. Three rats died resulting in a total of 42 rats in the study. Rats were sedated with 2-4% isoflurane anesthesia in 400 mL/min 02 to effect. Unilateral anterior cruciate ligament transections (ACLT, animals=45) were performed by medially translocating the patellar tendon in order to visualize and transect the ACL to create a […] model of OA. Left legs served at contralateral controls (c-control) while right legs received either […] of vehicle injections or 4×10^−7 M 24R,25(OH)2D3 (24R,2S) injections once a week. Eighteen rats were used to examine a 5-week prophylactic treatment duration while another eighteen rats were used to examine a 10-week prophylactic treatment duration. […] However, 3 animals died in this study resulting in an n=8 for the ACLT rats, for the 5-week vehicle (5W-Veh) treated rats, and the 10-week 24R,25 (10W-24R,25) treated rats. Animals were killed after 70 days. Hind-limbs were collected and micro-CT and histological analyses were performed. […]
The articular cartilage area, fibrotic area, and percent healthy subchondral bone were measured using Zen 2012 Blue Edition software. For the unilateral ACLT study: the articular cartilage area was measured on 2-3 slides per sample and the average area for each sample was reported for medial tibias. […]

[4] = system: IL-1β stimulated increases in MMP-13, PGE2, and NO; conditions: cited from earlier work
[5] = system: destabilization of the medial meniscus model of OA; conditions: destabilization of the medial meniscus model of OA in mice; literature; cited from earlier work
[6] = system: rat articular chondrocytes (rArCs); experiment: WNT/β-catenin agonist or antagonist treatment of rArCs with or without IL-1β; type: cell-based; conditions: compound alone (LiCl 5 mM and 10 mM; XAV 0.5, 1 μM)
[7] = system: rat articular chondrocytes (rArCs); experiment: WNT/β-catenin agonist or antagonist treatment of rArCs with or without TNF-α; type: cell-based; conditions: compound plus 10 ng/mL TNF-α
[8] = bilateral ACLT, 24R,25 vs vehicle limbs
[9] = 10W 24R,25 vs 10W-Veh vs ACLT alone

Compound: C=C1CC[C@H](O)C/C1=C/C=C1\CCC[C@]2(C)[C@@H]([C@H](C)CC[C@@H](O)C(C)(C)O)CC[C@@H]12 [24R,25, 24R,25-Dihydroxyvitamin D3]
- OA progression [1]: mitigated OA progression
- OARSI score (average) ([2]; bilateral ACLT, 24R,25 once weekly, day 70): 16.61 and 15
- articular cartilage area, medial femurs (histomorphometric analysis) ([2]; bilateral ACLT, 24R,25 right legs vs vehicle left legs, once weekly): significantly less articular cartilage area compared to vehicle limbs
- fibrotic area, medial femurs [2, 8]: equivalent amount
- percent healthy subchondral bone, medial femurs [2, 8]: equivalent amount
- mitigation of OA progression / OA severity ([2]; severe (bilateral ACLT) model): did not provide evidence of mitigation of OA progression
- cartilage area by histomorphometric analysis, medial tibias [3, 9]: no difference in cartilage area
- micro-CT cartilage volume, medial and lateral tibia [3, 9]: no difference in cartilage volume between groups
- mean OARSI score, medial tibias ([3]; unilateral ACLT, 4×10^−7 M 24R,25 once a week for 10 weeks, day 70, max possible score 26): 5.11
- IL-1β stimulated increases in MMP-13, PGE2, and NO [4]: able to prevent

Compound: Oc1nc(-c2ccc(C(F)(F)F)cc2)nc2c1CSCC2 [XAV, XAV-939]
- cartilage degradation [5]: reduced cartilage degradation
- total DNA [6]: this was not seen
- total DNA [7]: decrease in total DNA
